Source: patent US9796680B2, “Glucocerebrosidase modulators and uses thereof” (Alectos Therapeutics Inc., priority 2013, dated 2017)

target: GCase enzyme (Cerezyme, recombinant human GCase) (Homo sapiens, UniProt P04062, R534H)
Sequence (P04062 40-536 R534H limits assumed): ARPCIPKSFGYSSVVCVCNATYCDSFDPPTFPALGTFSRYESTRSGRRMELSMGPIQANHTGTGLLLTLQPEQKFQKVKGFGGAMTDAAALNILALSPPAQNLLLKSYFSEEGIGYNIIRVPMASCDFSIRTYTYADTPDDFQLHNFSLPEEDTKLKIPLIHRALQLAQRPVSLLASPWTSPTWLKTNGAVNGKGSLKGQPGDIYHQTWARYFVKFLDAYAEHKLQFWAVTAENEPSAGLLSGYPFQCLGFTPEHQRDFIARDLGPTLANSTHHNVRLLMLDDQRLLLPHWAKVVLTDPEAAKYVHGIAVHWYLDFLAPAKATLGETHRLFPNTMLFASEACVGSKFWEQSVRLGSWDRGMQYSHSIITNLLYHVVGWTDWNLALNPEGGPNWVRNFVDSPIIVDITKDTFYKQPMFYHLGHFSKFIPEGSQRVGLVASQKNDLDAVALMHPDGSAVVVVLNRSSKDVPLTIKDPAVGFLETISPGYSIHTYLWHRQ
Protocol: Assay for Determination of Ki Values for Inhibition of GCase Activity
Various concentrations of test compounds were prepared in DMSO and then diluted into buffer consisting of 50 mM sodium phosphate 0.25% w/v sodium taurodexoycholate, pH 7.0. […] The reaction solution consisted of 25 μL of 6 mM 4-methylumbelliferone-β-D glucopyranoside in 10% DMSO in the same buffer, 12.5 μL of enzyme and 12.5 μL of various concentrations of test compound diluted in buffer. […] The reaction was initiated by addition of enzyme and allowed to proceed for 20 min at 37° C. to assess GCase activity. […] IC50 values were determined by fitting the data to a log [inhibitor concentration] versus response curve using GraphPad Prism.

| SMILES | IC50 [µM] | Ki [µM] |
| --- | --- | --- |
| OC[C@@H]1[C@@H](O)[C@H](O)CNC12CC2 [Example 2, (6R,7R,8R)-8-(hydroxymethyl)-4-azaspiro[2.5]octane-6,7-diol] | 0.013 | 0.007 |
| O=C(NC1CC1)[C@@H]1[C@@H](O)[C@H](O)CNC12CC2 [Example 11, (6R,7R,8S)-N-cyclopropyl-6,7-dihydroxy-4-azaspiro[2.5]octane-8-carboxamide] | 0.462 | – |
| CC1(C)NC[C@@H](O)[C@H](O)[C@H]1CO [(3R,4R,5R)-5-(hydroxymethyl)-6,6-dimethylpiperidine-3,4-diol, reference compound] | 3.44 | – |
| O[C@H]1[C@H](O)CNC2(CC2)[C@@H]1CF [Example 3, (6R,7R,8S)-8-(fluoromethyl)-4-azaspiro[2.5]octane-6,7-diol] | 0.0062 | 0.0021 |
| O[C@H]1[C@H](O)CNC2(CC2)[C@@H]1/C=C\F [Example 17, (6R,7R,8S)-8-((Z)-2-fluorovinyl)-4-azaspiro[2.5]octane-6,7-diol] | 0.036 | – |
| O[C@H]1[C@H](O)CNC2(CC2)[C@@H]1C#CCCF [Example 27, (6R,7R,8S)-8-(4-fluorobut-1-yn-1-yl)-4-azaspiro[2.5]octane-6,7-diol] | 0.0025 | – |
| CCC[C@@H]1[C@@H](O)[C@H](O)CNC12CC2 [Example 13, (6R,7R,8S)-8-propyl-4-azaspiro[2.5]octane-6,7-diol] | 0.015 | – |
| COC[C@@H]1[C@@H](O)[C@H](O)CNC12CC2 [Example 6, (6R,7R,8R)-8-(methoxymethyl)-4-azaspiro[2.5]octane-6,7-diol] | 0.0075 | – |
| O[C@H]1[C@H](O)CNC2(CC2)[C@@H]1C#CCC(F)F [Example 28, (6R,7R,8S)-8-(4,4-difluorobut-1-yn-1-yl)-4-azaspiro[2.5]octane-6,7-diol] | 0.011 | – |
| CO[C@@H]1[C@@H](O)[C@H](O)CNC12CC2 [Example 7, (6R,7S,8S)-8-methoxy-4-azaspiro[2.5]octane-6,7-diol] | 0.032 | – |
| O[C@H]1[C@H](O)CNC2(CC2)[C@@H]1C=C(F)F [Example 19, (6R,7R,8S)-8-(2,2-difluorovinyl)-4-azaspiro[2.5]octane-6,7-diol] | 0.075 | – |
| O[C@H]1[C@H](O)CNC2(CC2)[C@@H]1C(F)F [Example 4, (6R,7R,8S)-8-(difluoromethyl)-4-azaspiro[2.5]octane-6,7-diol] | 0.0065 | 0.008 |
| CNC(=O)[C@@H]1[C@@H](O)[C@H](O)CNC12CC2 [Example 10, (6R,7R,8S)-6,7-dihydroxy-N-methyl-4-azaspiro[2.5]octane-8-carboxamide] | 0.264 | – |
| CCC#C[C@@H]1[C@@H](O)[C@H](O)CNC12CC2 [Example 22, (6R,7R,8S)-8-(but-1-yn-1-yl)-4-azaspiro[2.5]octane-6,7-diol] | 0.0024 | – |
| CCCC#C[C@@H]1[C@@H](O)[C@H](O)CNC12CC2 [Example 23, (6R,7R,8S)-8-(pent-1-yn-1-yl)-4-azaspiro[2.5]octane-6,7-diol] | 0.0067 | – |
| O[C@H]1[C@H](O)CNC2(CC2)[C@@H]1C#CC(F)F [Example 26, (6R,7R,8S)-8-(3,3-difluoroprop-1-yn-1-yl)-4-azaspiro[2.5]octane-6,7-diol] | 0.022 | 0.017 |
| C=C[C@@H]1[C@@H](O)[C@H](O)CNC12CC2 [Example 16, (6R,7R,8S)-8-vinyl-4-azaspiro[2.5]octane-6,7-diol] | 0.0068 | 0.0076 |
| CC[C@@H]1[C@@H](O)[C@H](O)CNC12CC2 [Example 12, (6R,7R,8S)-8-ethyl-4-azaspiro[2.5]octane-6,7-diol] | 0.0063 | – |
| C[C@@H]1[C@@H](O)[C@H](O)CNC12CC2 [Example 1, (6R,7R,8S)-8-methyl-4-azaspiro[2.5]octane-6,7-diol] | 0.0037 | 0.0026 |
| O=C(O)[C@@H]1[C@@H](O)[C@H](O)CNC12CC2 [Example 9, (6R,7R,8S)-6,7-dihydroxy-4-azaspiro[2.5]octane-8-carboxylic acid] | 0.507 | – |
| N#C[C@@H]1[C@@H](O)[C@H](O)CNC12CC2 [Example 8, (6R,7R,8R)-6,7-dihydroxy-4-azaspiro[2.5]octane-8-carbonitrile] | 0.075 | – |
| O[C@H]1[C@H](O)CNC2(CC2)[C@@H]1/C=C/F [Example 18, (6R,7R,8S)-8-((E)-2-fluorovinyl)-4-azaspiro[2.5]octane-6,7-diol] | 0.02 | – |
| CC#C[C@@H]1[C@@H](O)[C@H](O)CNC12CC2 [Example 21, (6R,7R,8S)-8-(prop-1-yn-1-yl)-4-azaspiro[2.5]octane-6,7-diol] | 0.0097 | 0.0067 |
| O[C@H]1[C@H](O)CNC2(CC2)[C@@H]1CCl [Example 5, (6R,7R,8S)-8-(chloromethyl)-4-azaspiro[2.5]octane-6,7-diol] | 0.0074 | – |
| O[C@H]1[C@H](O)CNC2(CC2)[C@@H]1CCF [Example 14, (6R,7R,8S)-8-(2-fluoroethyl)-4-azaspiro[2.5]octane-6,7-diol] | 0.027 | – |
| C#C[C@@H]1[C@@H](O)[C@H](O)CNC12CC2 [Example 20, (6R,7R,8S)-8-ethynyl-4-azaspiro[2.5]octane-6,7-diol] | 0.013 | 0.0079 |
| OCC#C[C@@H]1[C@@H](O)[C@H](O)CNC12CC2 [Example 24, (6R,7R,8S)-8-(3-hydroxyprop-1-yn-1-yl)-4-azaspiro[2.5]octane-6,7-diol] | 0.017 | – |
| O[C@H]1[C@H](O)CNC2(CC2)[C@@H]1C#CCF [Example 25, (6R,7R,8S)-8-(3-fluoroprop-1-yn-1-yl)-4-azaspiro[2.5]octane-6,7-diol] | 0.016 | 0.015 |
